# In patent publication US8030354B2, “Substituted biphenyl GPR40 modulators” (Amgen Inc., priority 2007, dated 2011):
# Target: GPR40 (Homo sapiens, UniProt O14842)
# Assay: Cell-based aequorin assay (CHO cells stably expressing GPR40 and aequorin)
# Design: expressed in transfected cells; host or cells: CHO cells stably transfected with GPR40 and aequorin
# Settings: activation of human GPR40, CHO cells, 0.01% HSA
# Experimental: Briefly, the Aequorin assays were performed on doubly stable CHO cells expressing GPR40 and Aequorin DNA. […] The luminescence was recorded over a period of 20 seconds with a Microlumat luminometer (Berthold). […] The inositol phosphate assay was performed on an A9 cell line stably transfected with GPR40 (A9_GPR40). The cells were incubated with different concentrations of compounds and [^3H] inositol accumulation was measured after 1 hour.
# Cell-based aequorin assays were employed to characterize the modulatory activity of compounds on the GPR40 signaling pathway. In an exemplary assay, CHO cells were stably transfected with both GPR40 and Aequorin (Euroscreen). Cells were detached from the tissue culture dish with 2 mL of trypsin (0.25%(w/v)). Trypsinization was halted with 28 mL of Hanks Buffered Salt Solution containing 20 mM Hepes (H/HBSS) and 0.01% fatty acid-free human serum albumin (HSA). Coelantrazine is added to 1 ug/mL, and the cells were incubated for 2 hours at room temperature. Compounds were dissolved in DMSO for preparation of 10 mM stock solutions. Compounds were diluted in H/HBSS containing 0.01% HSA. Serial dilutions of the test compounds were prepared to determine dose response.
# Aequorin luminescence measurements were made using an EG&G Berthold 96-well luminometer, and the response was measured over a 20 second interval after cells and compounds were mixed. The maximum relative light units was plotted to determine dose response. The EC50 (effective concentration to reach 50% maximal response) was determined from the dose response plot.
# GPR40, sequence (O14842 whole entry): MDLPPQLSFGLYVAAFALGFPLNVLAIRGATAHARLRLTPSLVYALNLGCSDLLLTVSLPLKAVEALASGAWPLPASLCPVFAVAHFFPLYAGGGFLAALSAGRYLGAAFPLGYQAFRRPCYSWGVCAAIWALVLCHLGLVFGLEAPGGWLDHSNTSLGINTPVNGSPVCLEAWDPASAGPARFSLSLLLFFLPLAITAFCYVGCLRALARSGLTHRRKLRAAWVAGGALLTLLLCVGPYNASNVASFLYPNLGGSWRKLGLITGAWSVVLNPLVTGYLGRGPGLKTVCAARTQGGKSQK
row,SMILES,EC50 [µM]
1,"CCCCOc1cc(COc2cccc(C(CC(=O)O)C3CC3)c2)ccc1-c1cccc(OC)c1 (single isomer, unassigned) [Example 66.1, (3S)-3-(3-(((2-(Butyloxy)-3′-(methyloxy)-1,1′-biphenyl-4-yl)methyl)oxy)phenyl)-3-cyclopropylpropanoic acid or (3R)-3-(3-(((2-(butyloxy)-3′-(methyloxy)-1,1′-biphenyl-4-yl)methyl)oxy)phenyl)-3-cyclopropylpropanoic acid]",0.1 to 1
2,"COc1ccc(F)c(-c2ccc(COc3cccc(C(CC(=O)O)C4CC4)c3)cc2C2CCCC2(C)C)c1 (single isomer, unassigned) [Example 66.5]",0.1 to 1
3,"COc1cccc(-c2ccc(COc3cccc(C(CC(=O)O)C4CC4)c3)cc2C2CCCC2(C)C)c1 (single isomer, unassigned) [Example 66.7]",0.1 to 1
4,"CC1(C)CCC=C1c1cc(COc2cccc([C@@H](CC(=O)O)C3CC3)c2)ccc1-c1cc(O)ccc1F (single isomer, unassigned) [Example 66.14, (3S)-3-Cyclopropyl-3-(3-(((2-(5,5-dimethyl-1-cyclopenten-1-yl)-2′-fluoro-5′-hydroxy-1,1′-biphenyl-4-yl)methyl)oxy)phenyl)propanoic acid or (3R)-3-cyclopropyl-3-(3-(((2-(5,5-dimethyl-1-cyclopenten-1-yl)-2′-fluoro-5′-hydroxy-1,1′-biphenyl-4-yl)methyl)oxy)phenyl)propanoic acid]",0.1 to 1
5,"COc1ccc(F)c(-c2ccc(COc3cccc([C@@H](CC(=O)O)C4CC4)c3)cc2C2CCCCCCC2)c1 (single isomer, unassigned) [Example 66.16, (3S)-3-(3-(((2-Cyclooctyl-2′-fluoro-5′-(methyloxy)-1,1′-biphenyl-4-yl)methyl)oxy)phenyl)-3-cyclopropylpropanoic acid or (3R)-3-(3-(((2-cyclooctyl-2′-fluoro-5′-(methyloxy)-1,1′-biphenyl-4-yl)methyl)oxy)phenyl)-3-cyclopropylpropanoic acid]",0.1 to 1
6,"COc1ccc(F)c(-c2ccc(COc3cccc([C@@H](CC(=O)O)C4CC4)c3)cc2[C@H](C)C(C)(C)C)c1 (single isomer, unassigned) [Example 66.18]",0.1 to 1
7,"COc1ccc(F)c(-c2ccc(COc3cccc([C@@H](CC(=O)O)C4CC4)c3)cc2[C@@H]2CCCCC2(C)C)c1 (single isomer, unassigned) [Example 66.21]",0.1 to 1
8,"CC1(C)CCC[C@@H]1c1cc(COc2cccc([C@@H](CC(=O)O)C3CC3)c2)ccc1-c1cc(OCC(F)(F)F)ccc1F (single isomer, unassigned) [Example 66.23]",1 to 10
9,"CC1(C)CCC[C@@H]1c1cc(COc2cccc([C@@H](CC(=O)O)C3CC3)c2)ccc1-c1cc(OC(F)(F)F)ccc1F (single isomer, unassigned) [Example 66.29]",0.1 to 1
10,"COc1ccc(F)c(-c2ccc(COc3cccc([C@@H](CC(=O)O)C4CC4)c3)cc2[C@H](F)C(C)(C)C)c1 (single isomer, unassigned) [Example 66.30]",0.1 to 1
11,"CO[C@@H](c1cc(COc2cccc([C@@H](CC(=O)O)C3CC3)c2)ccc1-c1ccccc1F)C(C)(C)C (single isomer, unassigned) [Example 66.32]",0.1 to 1
12,"CC1(C)CCCC=C1c1cc(COc2cccc(C(CC(=O)O)C3CC3)c2)ccc1-c1cc(=O)[nH]cc1F (single isomer, unassigned) [Example 66.35, (3S)-3-Cyclopropyl-3-(3-(((3-(6,6-dimethyl-1-cyclohexen-1-yl)-4-(5-fluoro-2-oxo-1,2-dihydro-4-pyridinyl)phenyl)methyl)oxy)phenyl)propanoic acid or (3R)-3-cyclopropyl-3-(3-(((3-(6,6-dimethyl-1-cyclohexen-1-yl)-4-(5-fluoro-2-oxo-1,2-dihydro-4-pyridinyl)phenyl)methyl)oxy)phenyl)propanoic acid]",1 to 10
13,"COc1ccc(F)c(-c2ccc(COc3cccc([C@@H](CC(=O)O)C4CC4)c3)cc2C(C2CC2)N(C)C)c1 (single isomer, unassigned) [Example 66.38, (3S)-3-Cyclopropyl-3-(3-(((2-(cyclopropyl(dimethylamino)methyl)-2′-fluoro-5′-(methyloxy)-1,1′-biphenyl-4-yl)methyl)oxy)phenyl)propanoic acid or (3R)-3-cyclopropyl-3-(3-(((2-(cyclopropyl(dimethylamino)methyl)-2′-fluoro-5′-(methyloxy)-1,1′-biphenyl-4-yl)methyl)oxy)phenyl)propanoic acid]",1 to 10
14,"COc1ccc(F)c(-c2ccc(COc3cccc([C@@H](CC(=O)O)C4CC4)c3)cc2C(OC)C(C)(C)CO)c1 (single isomer, unassigned) [Example 66.41, (S)-3-Cyclopropyl-3-{3-[2′-fluoro-2-(3-hydroxy-1-methoxy-2,2-dimethyl-propyl)-5′-methoxy-biphenyl-4-ylmethoxy]-phenyl}-propionic acid or (R)-3-cyclopropyl-3-{3-[2′-fluoro-2-(3-hydroxy-1-methoxy-2,2-dimethyl-propyl)-5′-methoxy-biphenyl-4-ylmethoxy]-phenyl}-propionic acid]",0.1 to 1
15,"COc1ccc(F)c(-c2cc(F)c(COc3cccc([C@@H](CC(=O)O)C4CC4)c3)cc2[C@@H]2CCCC2(C)C)c1 (single isomer, unassigned) [Example 66.45]",0.1 to 1
16,"COc1ccc(F)c(-c2ccc(COc3cccc([C@@H](CC(=O)O)C4CC4)c3)cc2C2=CCOCC2)c1 (single isomer, unassigned) [Example 66.46, (3S)-3-Cyclopropyl-3-(3-(((2-(3,6-dihydro-2H-pyran-4-yl)-2′-fluoro-5′-(methyloxy)-1,1′-biphenyl-4-yl)methyl)oxy)phenyl)propanoic acid or (3R)-3-cyclopropyl-3-(3-(((2-(3,6-dihydro-2H-pyran-4-yl)-2′-fluoro-5′-(methyloxy)-1,1′-biphenyl-4-yl)methyl)oxy)phenyl)propanoic acid]",1 to 10
17,"CC1(C)CCC[C@H]1c1cc(COc2cccc([C@@H](CC(=O)O)C3CC3)c2)ccc1-c1cccc(OC(F)F)c1 (single isomer, unassigned) [Example 66.47]",0.1 to 1
18,"CC1(C)CCC[C@@H]1c1cc(COc2cccc([C@@H](CC(=O)O)C3CC3)c2)ccc1-c1cccc(OC2CC2)c1 (single isomer, unassigned) [Example 66.48]",0.1 to 1
19,"CC1(C)CCC[C@H]1c1cc(COc2cccc([C@@H](CC(=O)O)C3CC3)c2)ccc1-c1cc(C(F)F)ccc1F (single isomer, unassigned) [Example 66.52]",1 to 10
20,"CC1(C)CCC=C1c1cc(COc2cccc([C@@H](CC(=O)O)C3CC3)c2)ccc1-c1cc(C(F)(F)F)ccc1F (single isomer, unassigned) [Example 66.53, (3S)-3-Cyclopropyl-3-(3-(((2-(5,5-dimethyl-1-cyclopenten-1-yl)-2′-fluoro-5′-(trifluoromethyl)-1,1′-biphenyl-4-yl)methyl)oxy)phenyl)propanoic acid or (3R)-3-cyclopropyl-3-(3-(((2-(5,5-dimethyl-1-cyclopenten-1-yl)-2′-fluoro-5′-(trifluoromethyl)-1,1′-biphenyl-4-yl)methyl)oxy)phenyl)propanoic acid]",1 to 10
21,"COc1ccc(F)c(-c2ccc(COc3cccc([C@@H](CC(=O)O)C4CC4)c3)cc2[C@H]2OCCCC2(C)C)c1 (single isomer, unassigned) [Example 66.55]",1 to 10
22,"C=CC(C)(C)[C@@H](O)c1cc(COc2cccc([C@@H](CC(=O)O)C3CC3)c2)ccc1-c1cc(OC)ccc1F (single isomer, unassigned) [Example 66.60]",1 to 10
23,"C=CC(C)(C)C(O)c1cc(COc2cccc(C(CC(=O)O)C3CC3)c2)ccc1-c1cc(OC)ccc1F (single isomer, unassigned) [Example 66.61]",0.1 to 1
24,"COc1ccc(F)c(-c2ccc(COc3cccc([C@@H](CC(=O)O)C4CC4)c3)cc2CN2CCCCC2)c1 (single isomer, unassigned) [Example 66.64, (3S)-3-Cyclopropyl-3-(3-(((2′-fluoro-5′-(methyloxy)-2-(1-piperidinylmethyl)-1,1′-biphenyl-4-yl)methyl)oxy)phenyl)propanoic acid or (3R)-3-cyclopropyl-3-(3-(((2′-fluoro-5′-(methyloxy)-2-(1-piperidinylmethyl)-1,1′-biphenyl-4-yl)methyl)oxy)phenyl)propanoic acid]",1 to 10
25,"COc1ccc(F)c(-c2ccc(COc3cccc([C@@H](CC(=O)O)C4CC4)c3)cc2CN2CCCC2)c1 (single isomer, unassigned) [Example 66.65, (3S)-3-Cyclopropyl-3-(3-(((2′-fluoro-5′-(methyloxy)-2-(1-pyrrolidinylmethyl)-1,1′-biphenyl-4-yl)methyl)oxy)phenyl)propanoic acid or (3R)-3-cyclopropyl-3-(3-(((2′-fluoro-5′-(methyloxy)-2-(1-pyrrolidinylmethyl)-1,1′-biphenyl-4-yl)methyl)oxy)phenyl)propanoic acid]",1 to 10
